Tested on: symptoms of a gastrointestinal condition
Assay: ingestion of glutamine shortly after the present compositions
Type: in vivo
Details: glutamine ingested shortly after the compositions
Description: In one example, the symptoms of a gastrointestinal condition will reappear rapidly if glutamine is ingested shortly after the present compositions. Exclusion of glutamine from the present compositions is therefore contemplated, and it may be advisable for persons being treated with the present compositions to reduce dietary consumption of glutamine, especially within one hour of ingesting the disclosed composition. Typically, an average person consumes 5-10 grams glutamine per day. In one embodiment, a person being treated with the present composition consumes no glutamine within one hour of ingestion, and preferably consumes less than about 5 grams glutamine per day, more preferably less than about 4.5 grams glutamine per day, and most preferably less than about 4 grams glutamine per day.

## NC(=O)CC[C@H](N)C(=O)O [glutamine]
  effect on the therapeutic effect of the disclosed compositions: counteracts the therapeutic effect

From patent publication US20080118441A1, “COMPOSITIONS AND METHODS FOR THE TREATMENT OF GASTROINTESTINAL CONDITIONS” (priority 2006, published 2008)
